Molecules are shown by their SMILES.

T1 sequence (P31652 whole entry): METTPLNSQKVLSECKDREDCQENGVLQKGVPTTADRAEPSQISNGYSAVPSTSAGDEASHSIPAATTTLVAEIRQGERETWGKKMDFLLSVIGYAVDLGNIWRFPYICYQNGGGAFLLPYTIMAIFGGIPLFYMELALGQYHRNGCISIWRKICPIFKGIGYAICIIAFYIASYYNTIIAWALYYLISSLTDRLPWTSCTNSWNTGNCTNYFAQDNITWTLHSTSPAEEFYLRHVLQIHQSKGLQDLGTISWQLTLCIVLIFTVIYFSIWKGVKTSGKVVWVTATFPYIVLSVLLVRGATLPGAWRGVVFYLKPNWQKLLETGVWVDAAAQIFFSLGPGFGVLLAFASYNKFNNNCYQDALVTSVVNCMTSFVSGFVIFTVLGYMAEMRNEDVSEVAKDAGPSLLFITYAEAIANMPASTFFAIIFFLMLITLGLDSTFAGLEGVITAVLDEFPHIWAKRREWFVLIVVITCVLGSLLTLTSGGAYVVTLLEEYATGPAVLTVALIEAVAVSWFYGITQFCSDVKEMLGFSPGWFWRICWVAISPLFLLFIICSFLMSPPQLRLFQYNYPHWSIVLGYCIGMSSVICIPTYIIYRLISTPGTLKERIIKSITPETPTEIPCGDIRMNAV
T2 sequence (Q9WTR4 1-597): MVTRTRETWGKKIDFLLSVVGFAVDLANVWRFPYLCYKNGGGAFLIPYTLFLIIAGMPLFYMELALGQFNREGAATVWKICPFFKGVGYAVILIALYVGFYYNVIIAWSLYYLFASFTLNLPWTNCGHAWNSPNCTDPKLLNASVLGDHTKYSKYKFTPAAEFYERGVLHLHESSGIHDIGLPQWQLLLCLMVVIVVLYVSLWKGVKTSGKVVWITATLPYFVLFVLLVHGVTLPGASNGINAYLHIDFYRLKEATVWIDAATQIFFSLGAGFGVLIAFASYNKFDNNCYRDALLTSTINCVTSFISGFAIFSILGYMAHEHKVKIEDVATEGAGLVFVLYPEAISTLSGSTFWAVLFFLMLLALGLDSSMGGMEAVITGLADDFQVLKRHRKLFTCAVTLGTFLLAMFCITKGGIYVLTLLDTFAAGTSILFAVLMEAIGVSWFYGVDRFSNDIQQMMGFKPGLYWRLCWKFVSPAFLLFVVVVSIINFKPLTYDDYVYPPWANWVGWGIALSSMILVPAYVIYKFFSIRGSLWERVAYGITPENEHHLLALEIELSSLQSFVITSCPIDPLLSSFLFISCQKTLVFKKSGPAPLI

One experiment has as its target T1, 5-HT transporter (Rattus norvegicus, UniProt P31652).
T1 construct: from tissue; host or cells: rat brain (medulla and pons), synaptosomes, P2 fraction
The experiment is described as follows: 5-HT uptake inhibition, synaptosomes from rat brain (medulla and pons). The class given is biochemical.
Conditions: not given
The method in brief:
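Freshly isolated rat brain synaptosomes (P2 fraction): hypothalamus for NA uptake, medulla/pons for 5-HT uptake. Uptake of [3H]-NA (7.5 min) or [3H]-5-HT (5 min) at room temperature under O2, stopped by filtration over GF/B. Retained radioactivity counted by scintillation.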
`O=C(NCc1ccccc1)c1noc2c1CN(C(=O)Nc1ccccc1)CC2` [Example 17, 6,7-dihydro-4H-isoxazolo[4,5-c]pyridine-3,5-dicarboxylic acid 3-benzyl amide 5-phenyl amide]: the “5-HT uptake (rat), 10 μM, % inhibition” value was found to be 64%.
On the same count and under the same terms, as for `CC(=O)c1cccc(NC(=O)N2CCc3onc(C(=O)NCc4ccc(C)o4)c3C2)c1` [Example 15, 6,7-dihydro-4H-isoxazolo[4,5-c]pyridine-3,5-dicarboxylic acid 5-[(3-acetyl-phenyl) amide] 3-[(5-methyl-furan-2-ylmethyl) amide]], the figure is 58%.
Consider `CCOC(=O)CCNC(=O)c1noc2c1CN(C(=S)NCC1CCCCC1)CC2` [Example 134, 3-{[5-(cyclohexylmethyl-thiocarbamoyl)-4,5,6,7-tetrahydro-isoxazolo[4,5-c]pyridine-3-carbonyl]-amino}-propionic acid ethyl ester], for which the inhibition (as a rule, how much of the control response was suppressed) at 10 µM amounted to 61%.
On the same count and under the same terms, as for `CN(C)S(=O)(=O)N1CCc2onc(C(=O)NCCc3ccc(Cl)cc3)c2C1` [Example 76, 5-dimethylsulfamoyl-4,5,6,7-tetrahydro-isoxazolo[4,5-c]pyridine-3-carboxylic acid [2-(4-chlorophenyl)-ethyl] amide], the figure is 63%; as for `Cc1cc(C(=O)N2CCc3onc(C(=O)NCCN4CCCC4)c3C2)ccc1Br` [Example 102, 5-(4-bromo-3-methyl-benzoyl)-4,5,6,7-tetrahydro-isoxazolo[4,5-c]pyridine-3-carboxylic acid (2-pyrrolidin-1-yl-ethyl) amide], 70%.

Staying with this experiment, now noted: 10 µM.
With `O=C(NCCN1CCCC1)c1noc2c1CN(C(=O)COc1cccc(Cl)c1)CC2` [Example 94, 5-[2-(3-chlorophenoxy)-acetyl]-4,5,6,7-tetrahydro-isoxazolo[4,5-c]pyridine-3-carboxylic acid (2-pyrrolidin-1-yl-ethyl) amide], the “5-HT uptake (rat), 10 μM, % inhibition” value was 94%.

The next experiment has as its target T2, NA transporter (Rattus norvegicus, UniProt Q9WTR4).
T2 construct: from tissue; host or cells: rat brain (hypothalamus), synaptosomes, P2 fraction
The experiment in a line: Noradrenalin (NA) uptake inhibition, synaptosomes from rat brain (hypothalamus).
Conditions: not given
The class given is biochemical. The text has this:
b) Method for Determining Noradrenalin and 5-HT Uptake Inhibition:
Synaptosomes from rat brain regions are freshly isolated for in vitro studies, as described in the publication “The isolation of nerve endings from brain” by E. G. Gray and V. P. Whittaker, J. Anatomy 96, pages 79-88, 1962. The corresponding literature description is hereby introduced as a reference and is deemed to be part of the disclosure.
The tissue (hypothalamus for the determination of noradrenalin uptake inhibition and medulla and pons for the determination of 5-HT uptake inhibition) is homogenised in ice-cooled 0.32 M sucrose (100 mg of tissue/1 mL) in a glass homogeniser with Teflon pestle using five complete up and down strokes at 840 revolutions/minute.
The homogenate is centrifuged at 4° C. for 10 minutes at 1000 g. After subsequent centrifugation at 17000 g for 55 minutes, the synaptosomes (P2 fraction) are obtained, which are resuspended in 0.32 M […] (0.5 mL/100 mg of original weight).
The particular uptake is measured in a 96-well microtitre plate. The volume is 250 μL and the incubation proceeds at room temperature (approx. 20-25° C.) under an O2 atmosphere.
The incubation time is 7.5 minutes for [^3H]-NA and 5 minutes for [^3H]-5-HT. The 96 samples are then filtered through a Unifilter GF/B® microtitre plate (Packard) and washed with 200 mL of incubated buffer using a “Brabdel MPXRI-96T Cell-Harvester”. The Unifilter GF/B plate is dried for 1 hour at 55° C. The plate is then sealed with a Back Seal® (Packard) and 35 μL of scintillation fluid are added per well (Ultima Gold®, Packard). After sealing with a top Seal® (Packard) and establishing an equilibrium (around 5 hours), radioactivity is determined in a “Trilux 1450 Microbeta” (Wallac).
The quantity of protein used in the above determination corresponds to the values known from the literature, as for example described in “Protein measurement with the folin phenol reagent”, Lowry et al., J. Biol. Chem., 193, 265-275, 1951.
A detailed description of the method may additionally be found in the literature, for example in M. Ch. Frink, H.-H. Hennies, W. Engelberger, M. Haurand and B. Wilffert (1996) Arzneim.-Forsch./Drug Res. 46 (III), 11, 1029-1036.
The following characteristics were determined for the NA or 5-HT transporter: […]
Compound `O=C(NCCc1ccccc1)c1noc2c1CN(C(=O)c1ccc(F)c(Cl)c1)CC2` [Example 105, 5-(3-chloro-4-fluoro-benzoyl)-4,5,6,7-tetrahydro-isoxazolo[4,5-c]pyridine-3-carboxylic acid phenethyl amide] returned an inhibition at 10 µM of 62%.
On the same count and under the same terms, as for `O=C(Cc1ccc(F)c(F)c1)N1CCN(C(=O)c2noc3c2CN(S(=O)(=O)c2ccc(F)cc2)CC3)CC1` [Example 48, 2-(3,4-difluoro-phenyl)-1-{4-[5-(4-fluoro-benzenesulfonyl)-4,5,6,7-tetrahydro-isoxazolo[4,5-c]pyridine-3-carbonyl]-piperazin-1-yl}-ethanone], the figure is 61%; as for `O=C(NCCN1CCOCC1)c1noc2c1CN(S(=O)(=O)c1cc(Cl)c(Cl)s1)CC2` [Example 63, 5-(4,5-dichloro-thiophene-2-sulfonyl)-4,5,6,7-tetrahydro-isoxazolo[4,5-c]pyridine-3-carboxylic acid (2-morpholin-4-yl-ethyl) amide], 77%.
Consider `O=C(NC1CCN(Cc2ccc(C(F)(F)F)cc2)C1)c1noc2c1CN(S(=O)(=O)c1ccccc1)CC2` (stereo not shown) [Example 103, 5-benzenesulfonyl-4,5,6,7-tetrahydro-isoxazolo[4,5-c]pyridine-3-carboxylic acid [1-(4-trifluoromethyl-benzyl)-pyrrolidin-3-yl] amide], for which at 10 µM the inhibition was 91%.
Still for that read-out and setting: in the case of `CCOC(=O)CCNC(=O)c1noc2c1CN(C(=O)c1c(F)ccc(C)c1F)CC2` [Example 111, 3-{[5-(2,6-difluoro-3-methyl-benzoyl)-4,5,6,7-tetrahydro-isoxazolo[4,5-c]pyridine-3-carbonyl]-amino}-propionic acid ethyl ester] it was 66%; in that of `CC(CNC(=O)c1noc2c1CN(S(=O)(=O)c1cccs1)CC2)c1ccccc1` (stereo not shown) [Example 104, 5-(thiophene-2-sulfonyl)-4,5,6,7-tetrahydro-isoxazolo[4,5-c]pyridine-3-carboxylic acid (2-phenyl-propyl) amide], 77%.
For `CCC(C)(CC(=O)O)CC(=O)N1CCc2onc(C(=O)Nc3ccccc3)c2C1` (stereo not shown) [Example 29, 3-ethyl-3-methyl-5-oxo-5-(3-phenylcarbamoyl-6,7-dihydro-4H-isoxazolo[4,5-c]pyridin-5-yl)-pentanoic acid], the inhibition at 10 µM was 44%.
The same measure, in the same setting: in the case of `Cc1ccc(S(=O)(=O)N2CCc3onc(C(=O)NC(C)C(=O)OC(C)(C)C)c3C2)cc1` (stereo not shown) [Example 120, 2-{[5-(toluene-4-sulfonyl)-4,5,6,7-tetrahydro-isoxazolo[4,5-c]pyridine-3-carbonyl]-amino}-propionic acid tert-butyl ester] it was 62%.
`CCOC(=O)N1CCC(NC(=O)c2noc3c2CN(S(=O)(=O)c2ccc(F)cc2)CC3)CC1` [Example 43]: the “NA Uptake (rat), 10 μM, % inhibition” value is reported as 63%.
`O=C(NC1CCCC1OCc1ccccc1)c1noc2c1CN(S(=O)(=O)c1cc(Cl)ccc1Cl)CC2` (stereo not shown) [Example 40, 5-(2,5-dichloro-benzenesulfonyl)-4,5,6,7-tetrahydro-isoxazolo[4,5-c]pyridine-3-carboxylic acid (2-benzyloxy-cyclopentyl) amide] returned an inhibition at 10 µM of 71%.
Same read-out and setting: as for `O=C(NCc1cccs1)c1noc2c1CN(C(=O)c1ccco1)CC2` [Example 50, 5-(furan-2-carbonyl)-4,5,6,7-tetrahydro-isoxazolo[4,5-c]pyridine-3-carboxylic acid (thiophen-2-ylmethyl) amide], the figure is 71%; as for `CC(CCc1ccccc1)NC(=O)c1noc2c1CN(S(=O)(=O)c1ccc(OC(F)(F)F)cc1)CC2` (stereo not shown) [Example 96, 5-(4-trifluoromethoxy-benzenesulfonyl)-4,5,6,7-tetrahydro-isoxazolo[4,5-c]pyridine-3-carboxylic acid (1-methyl-3-phenyl-propyl) amide], 63%.
The compound `COCCNC(=S)N1CCc2onc(C(=O)NCCc3ccccc3)c2C1` [Example 130, 5-(2-methoxy-ethylthiocarbamoyl)-4,5,6,7-tetrahydro-isoxazolo[4,5-c]pyridine-3-carboxylic acid phenethyl amide] yielded an inhibition at 10 µM of 67%.
The same measure, in the same setting: as for `O=C(c1noc2c1CN(S(=O)(=O)c1cc(Cl)ccc1Cl)CC2)N1CCN(c2ccccc2Cl)CC1` [Example 110, [4-(2-chlorophenyl)-piperazin-1-yl]-[5-(2,5-dichloro-benzenesulfonyl)-4,5,6,7-tetrahydro-isoxazolo[4,5-c]pyridin-3-yl]-methanone], the figure is 86%; as for `COc1ccc(CNC(=S)N2CCc3onc(C(=O)NC4CCCC4)c3C2)cc1` [Example 127, 5-(4-methoxy-benzylthiocarbamoyl)-4,5,6,7-tetrahydro-isoxazolo[4,5-c]pyridine-3-carboxylic acid cyclopentyl amide], 63%.
Compound `O=C(NC1CCN(Cc2ccc(C(F)(F)F)cc2)C1)c1noc2c1CN(S(=O)(=O)c1ccc(F)cc1)CC2` (stereo not shown) [Example 39, 5-(4-fluoro-benzenesulfonyl)-4,5,6,7-tetrahydro-isoxazolo[4,5-c]pyridine-3-carboxylic acid [1-(4-trifluoromethyl-benzyl)-pyrrolidin-3-yl]amide] gave an inhibition at 10 µM of 61%.
For `CN(C)S(=O)(=O)N1CCc2onc(C(=O)NCCc3ccc(Cl)c(Cl)c3)c2C1` [Example 122, 5-dimethylsulfamoyl-4,5,6,7-tetrahydro-isoxazolo[4,5-c]pyridine-3-carboxylic acid [2-(3,4-dichloro-phenyl)-ethyl] amide], the inhibition at 10 µM came out at 63%.
For `O=C(NCCN1CCCC1)c1noc2c1CN(S(=O)(=O)c1cccc(Cl)c1)CC2` [Example 118, 5-(3-chloro-benzenesulfonyl)-4,5,6,7-tetrahydro-isoxazolo[4,5-c]pyridine-3-carboxylic acid (2-pyrrolidin-1-yl-ethyl) amide], 10 µM produced 63% inhibition.
`O=C(c1noc2c1CN(S(=O)(=O)c1ccc(OC(F)(F)F)cc1)CC2)N(CCc1ccccc1)Cc1ccccc1` [Example 32, 5-(4-trifluoromethoxy-benzenesulfonyl)-4,5,6,7-tetrahydro-isoxazolo[4,5-c]pyridine-3-carboxylic acid benzyl-phenethyl amide]: at 10 µM the inhibition was 82%.

For the origin of these results see patent US8048879B2, “Substituted 4,5,6,7-tetrahydro-isoxazolo[4,5-c]pyridine compounds and use thereof for producing medicaments” (Gruenenthal GmbH, priority 2005, dated 2011).
